Here are results for two molecules from patent US20150140043A1, “IMMUNOMODULATORY METHODS USING NOTCH AGONISTS” (INSTITUT NATIONAL DE LA SANTE DE LA RECHERCHE MEDICAL …, priority 2012, published 2015).

What all share (type): cell-based, human
The test system of assay [1] is CD4+CD25- T cell proliferation. Kind of assay: Sensitizing assay: cells pre-incubated with NOTCH ligands, washed, then cultured with anti-CD3 with or without Treg. Conditions: for Percentage of inhibition of cell proliferation by Treg: CD4+CD25- T cells pre-exposed overnight to ligand (5 μg/ml), Treg ratio 1:8, 5 days anti-CD3, mean of 4 experiments; for Effect of exposure of Treg to ligand on Treg capacity to suppress CD4+CD25- proliferation: Treg exposed to ligand, anti-CD3 mAbs, data not shown. The method, then:
FIG. 1: NOTCH signalling is involved in Treg mediated inhibition of anti-CD3 stimulated CD4^+CD25^− T cell proliferation • A) Various ratio of CD4^+CD25^− T cells and CD4^+CD25^high T cells were cultured for 5 days in coated wells with anti-CD3 (1 μg/ml) in the presence or not of inhibitor of g-secretase (GSI 10 μM). Percentages of inhibition were calculated from the raw data using the equations: 1—(mean cpm of co-culture wells divided by mean cpm of CD4^+CD25^− cells cultured alone)×100. The data represent the mean±SEM and are representative of 5 independent experiments. * indicates P<0.05. • B) CD4^+CD25^−T cells were cultured for 18 hours in coated wells with anti-CD3 and NOTCH ligands (5 μg/ml) or IgG control (5 μg/ml). Then, T cells were washed and incubated for 5 days in coated wells with anti-CD3 in the absence or presence of Treg at ratio 1:8. The data represent the mean±SEM of inhibition of T cell proliferation of 5 independent experiments.
(§1) Peripheral blood mononuclear cells were separated by Ficoll-Hypaque centrifugation (Amersham Biosciences) from buffy coats obtained from healthy blood donors (EFS, Créteil). CD4^+ CD25^− T cells and CD4^+CD25^high T cells were isolated using a CD4^+ T cell enrichment column and a human CD4^+CD25^+ Treg isolation kit purchased from Miltenyi Biotec. CD4^+CD25^− cells and CD4^+CD25^+ cells were enriched to greater than 95% purity. Cells were plated in media at a concentration of 1.25×10^5 to 5×10^5 cells per ml in a 96-well round-bottom plates coated with 1 μg/ml of anti-CD3 (UCHT1) and 5 μg/ml of NOTCH Ligand (DL-1-Fc, DL-4-Fc and Jagged-1-Fc are a generous Gift from Dr. Sakano).
A total of 2.5×10^4 CD4^+CD25^− T cells were cultured with various ratios of CD4^+CD25^high cells and 1 μg/ml of anti-CD3 for 5 days, in the presence or absence of 10 μm of the gamma-secretase inhibitor Compound E. A total of […] [^3H] thymidine (Amersham Pharmacia) was added to the wells during the last 16 hours of culture. The cells were then harvested and assessed for [^3H] thymidine incorporation using a liquid scintillation counter. Results were expressed as mean cpm of quadriplicate culture wells.
Percentage of inhibition was calculated as follows: 1−(mean cpm of co-culture wells divided by mean cpm of CD4^+CD25^− cells cultured alone)×100.
In sensitizing assays CD4^+CD25^− and CD4^+CD25^high were pre-incubated during 16 hours on coated NOTCH Ligand. Cells were also collected, washed and incubated alone or with Treg and stimulated as described above. Some experiments were performed in the presence of anti-TGF-β or IgG control (2.5 μg/ml). […]

In assay [2] the test system is pSmad3. The experiment in a line: Immunoblot for pSmad3 in CD4+CD25- T cells. Conditions: 48 hours on coated ligand in the presence of TGF-β (5 ng/ml). The method, then:
FIG. 4: TGF-βRII function on effector T cells stimulated to NOTCH ligands • A) Western blot analysis was performed on CD4^+CD25^−T cells cultured for 48 hours in coated wells with anti-CD3 (200 ng/ml) and NOTCH ligands (5 μg/ml) in presence of TGF-β (5 ng/ml). The whole cell lysate was analysed by immunoblot for pSmad3 and b-actin was used as loading control. The experiment was repeated twice with similar results. […] Cells were analyzed 48 hours later and data normalized for β-galactosidase activity. Histograms show the luciferase activity in a representative experiment performed in PC12 with TβRII promoter-luciferase construct. The experiment was repeated 3 times with similar results.
CD4^+CD25^− T cells were stimulated with NOTCH Ligand during 2 days. 1 ng/ml of TGF-β was also added during 30 min to induce Smad3 phosphorylation. Cells were collected, washed and lysed with Tris HCL (20 mM) 0.5% SDS buffer in presence of DNase (benzonase), inhibitors of phosphatase and protease. 10 μg proteins were deposed for Western blot Analysis with following Antibodies: Anti-PhosphoSmad3, Smad3, Actine.
Given the above observations showing an upregulation of TGF-βRII following NOTCH activation, the inventors hypothesized that Jagged-1 and DL-4 led to an activation of TGF-β signalling in effector T cells. […]
(In general: Immunoblotting shows a protein as a band on a membrane.)

The subject of assay [3] is CD4+CD25- T cell proliferation. Kind of assay: Sensitization of CD4+CD25- T cells to low-dose TGF-β (anti-CD3 plus NOTCH ligands, no Treg). Conditions: anti-CD3 plus ligand (5 μg/ml), TGF-β 0.1 ng/ml, 5 days. The method, then: FIG. 2: NOTCH suppresses the proliferation of CD4^+CD25^− T cells through TGF-β • A) CD4^+CD25^−T cells were cultured for 5 days in coated wells with anti-CD3 and NOTCH ligands (5 μg/ml) or IgG control (5 μg/ml) in the presence of Treg at ratio 1:16. Anti-TGF-β or IgG control mAbs (2.5 μg/ml) were added at the beginning of the co-culture. The data represent the mean±SEM. * indicates P<0.05. • B) CD4^+CD25^−T cells were cultured for 5 days in coated wells with anti-CD3 and NOTCH ligands (5 μg/ml) or IgG control (5 μg/ml). Low dose of TGF-β (0.1 ng/ml) was added. The data represent the mean±SEM.
as §1, with “Sakano). […]” for “Sakano).”

As for “Jagged-1: recombinant NOTCH ligand Jagged-1, used coated as Jagged-1-Fc (SEQ ID NO: 5)”, in assay [1], the “Percentage of inhibition of cell proliferation by Treg” value is 65% and the “Effect of exposure of Treg to ligand on Treg capacity to suppress CD4+CD25- proliferation” value was “did not modify the Treg capacity”. Also, the “pSmad3 signal (immunoblot)” value in assay [2] was “strong pSmad3 signal”. In assay [3], the “Percentage of inhibition of proliferation in the presence of TGF-β” value came out at 87.8%.

B1: DL-1: recombinant NOTCH ligand Delta-like 1, used coated as DL-1-Fc (SEQ ID NO: 8) (protein, listed as Homo sapiens)
chain: MGSRCALALAVLSALLCQVWSSGVFELKLQEFVNKKGLLGNRNCCRGGAGPPPCACRTFFRVCLKHYQASVSPEPPCTYGSAVTPVLGVDSFSLPDGGGADSAFSNPIRFPFGFTWPGTFSLIIEALHTDSPDDLATENPERLISRLATQRHLTVGEEWSQDLHSSGRTDLKYSYRFVCDEHYYGEGCSVFCRPRDDAFGHFTCGERGEKVCNPGWKGPYCTEPICLPGCDEQHGFCDKPGECKCRVGWQGRYCDECIRYPGCLHGTCQQPWQCNCQEGWGGLFCNQDLNYCTHHKPCKNGATCTNTGQGSYTCSCRPGYTGATCELGIDECDPSPCKNGGSCTDLENSYSCTCPPGFYGKICELSAMTCADGPCFNGGRCSDSPDGGYSCRCPVGYSGFNCEKKIDYCSSSPCSNGAKCVDLGDAYLCRCQAGFSGRHCDDNVDDCASSPCANGGTCRDGVNDFSCTCPPGYTGRNCSAPVSRCEHAPCHNGATCHERGHRYVCECARGYGGPNCQFLLPELPPGPAVVDLTEKLEGQGGPFPWVAVCAGVILVLMLLLGCAAVVVCVRLRLQKHRPPADPCRGETETMNNLANCQREKDISVSIIGATQIKNTNKKADFHGDHSADKNGFKARYPAVDYNLVQDLKGDDTAVRDAHSKRDTKCQPQGSSGEEKGTPTTLRGGEASERKRPDSGCSTSKDTKYQSVYVISEEKDECVIATEV
As to B1, in assay [1], the “Percentage of inhibition of cell proliferation by Treg” value is recorded as 64.8% and the “Effect of exposure of Treg to ligand on Treg capacity to suppress CD4+CD25- proliferation” value is “did not modify the Treg capacity”. Moreover, the “pSmad3 signal (immunoblot)” value in assay [2] is “weak pSmad3 signal”. Also, in assay [3], the “Percentage of inhibition of proliferation in the presence of TGF-β” value was 42.9%.
